In patent US9238034B2, “FN14 antagonists and therapeutic uses thereof” (THE TRANSLATIONAL GENOMICS RESEARCH INSTITUTE, priority 2013, dated 2016):

Experiments:
T98G glioma cells = test: Cytotoxicity assay, CellTiter-Glo; format: cell-based, human; conditions: up to 50 μM, 72 hr
Experimental: Cytotoxicity Assay. Cytotoxic effects of drugs on glioma cells were analyzed by quantifying the ATP, an indicator of metabolically active cells. Briefly, glioma cells were seeded in tissue culture treated white 96-well plates at 3×10^3 cells/well in 80 μL Opti-MEM media (Invitrogen) and incubated for 24 hr at 37° C. After 24 hr incubation, 20 μL of 5× drug solution at required concentration in Opti-MEM was added to each well and incubated for 72 hr at 37° C. Opti-MEM/DMSO mixture without drug was used as negative control and 20 μM staurosporine was used as positive control. At the end of 72 hr incubation, the number of viable cells were quantified by using CellTiter-Glo assay kit (Promega, Madison, Wis.) according to the manufacturer's instructions. Luminescence signal measured was normalized to negative control to determine % cell viability.

TWEAK-Fn14 signaling = test: Cell based NF-κB luciferase reporter assay, Fn14-NF-κB-Luc cells stimulated with TWEAK; parameters: species or system human
Experimental: NF-κB luciferase reporter Assay. The capacity of sTWEAK or sTWEAK variants to activate Fn14 signaling was evaluated using engineered reporter cell lines that express luciferase upon NF-κB activation. Two reporter cell lines were utilized for these experiments. HEK293 NF-κB luciferase (courtesy of Dr. Jeff Winkles) were generated by transfecting HEK293 cells with a reporter plasmid containing 5 copies of a consensus NF-κB binding site upstream of a minimal CMV promoter driving expression of firefly luciferase. The second cell line, designated HEK293 NF-κB luciferase Fn14 FL, was generated by stably transfecting the HEK293 NF-κB luciferase cell line with full length Fn14. To assay the binding of sTWEAK or sTWEAK variants to Fn14, reporter cells were seeded in tissue culture treated white 96-well plates at 1×10^4 cells/well in 80 μL Opti-MEM media (Invitrogen) and incubated for 48 hr at 37° C. After 48 hr incubation, 20 μL of 5× purified recombinant TWEAK (Peprotech Inc.; 150 ng/mL) in 1 mg/mL BSA in PBS was added to each well and incubated for 5 hr at 37° C. as positive control. Similarly, equivalent amounts of sTWEAK or sTWEAK variant prepared via IVTTas determined using ELISA assay described above was added in 20 μl. IVTT solution lacking a cDNA template in 1 mg/mL BSA in PBS and 1 mg/mL BSA in PBS alone was used as an additional control. At the end of 5 hr incubation, the luminescent signal was determined using Bright-Glo assay kit (Promega, Madison, Wis.) according to the manufacturer's instructions.
Briefly, Fn14-NF-κB-Luc reporter cells, (Fn14 overexpressing HEK293 NF-κB luciferase cells), were seeded in tissue culture treated white 96-well plates at 1×10^4 cells/well in 80 μL Opti-MEM media (Invitrogen) and incubated for 48 hr at 37° C. […] Luminescent signal was determined using Bright-Glo assay kit (Promega, Madison, Wis.) according to the manufacturer's instructions and normalized to negative control. […] IC50 values for dose response curve were determined using the curve fitting functionality of GraphPad Prism software.

TWEAK = target: T1, TWEAK (Homo sapiens, UniProt O43508); test: Surface Plasmon Resonance assay, TWEAK sensor surface; format: binding; conditions: SPR, 0 to 50 μM
T1 sequence (O43508 94-249 limits assumed): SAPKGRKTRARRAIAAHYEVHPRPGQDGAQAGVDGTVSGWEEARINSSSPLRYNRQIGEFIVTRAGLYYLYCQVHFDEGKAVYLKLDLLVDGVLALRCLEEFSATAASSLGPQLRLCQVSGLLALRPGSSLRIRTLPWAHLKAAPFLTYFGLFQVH
Experimental: Surface Plasmon Resonance (SPR) Assay. The binding affinity of at least one of the compounds (e.g., L524-0366) to TWEAK and Fn14-Fx was determined using a BIAcore T100 optical biosensor (GE Healthcare) at 25 degrees Celsius at the Arizona Proteomics Consortium. Recombinant human TWEAK (20 μg/mL in 10 mM HEPES pH 7.4, 150 mM NaCl, 3 mM EDTA, 0.05% Tween 20) or recombinant human Fn14-Fc (20 μg/mL in 10 mM NaOAc pH 4.0) were covalently coupled to separate flow cells on a BIAcore CM5 sensor chip using standard amine coupling chemistry as per manufacturer's protocol. Final immobilization levels were 6000 Response Units (RU) for TWEAK and 13,000 RU for FN14-Fc. The first flow path of the chip was treated with the same coupling and blocking reagents without protein and was used as a reference for each binding cycle. Functionality of the TWEAK and the Fn14-Fc sensor surfaces were verified by injecting Fn14-Fc and TWEAK over them respectively. Serial dilutions of L524-0366 or cycloheximide (control) from 0 to 50 μM were made in running buffer (10 mM HEPES pH 7.4, 150 mM NaCl, 3 mM EDTA, 1% DMSO). […] Equilibrium dissociation constants for the small molecules were calculated by fitting the double reference subtracted data to Req=((CRmax)/(KD+C))+RI, where RI is the bulk refractive index contribution.

IC50 (TWEAK-Fn14 signaling; Homo sapiens, Fn14-NF-κB-Luc cells stimulated with TWEAK, 0.75 μM to 250 μM, read-out: IC50, TWEAK-Fn14 stimulated luciferase induction): 7.8 µM
binding to TWEAK (TWEAK): not to the TWEAK surface
Compound: O=C(c1cn(-c2cccc(Cl)c2)nn1)N1CCSCC1 [Compound L524-0366]
cytotoxicity (T98G glioma cells): did not demonstrate any cytotoxicity
inhibition of TWEAK-induced NF-κB driven luciferase activity (TWEAK-Fn14 signaling; Fn14-NF-κB-Luc cells, 20 μM): significant inhibition
fold higher inhibitory activity against TWEAK-Fn14 signaling (TWEAK-Fn14 signaling; TWEAK/Fn14-NF-κB-Luc versus TNFα/NF-κB-Luc IC50): approximately 5 fold
